In US20260256792A1, “TREATMENT OF CHRONIC SPONTANEOUS URTICARIA BY ADMINISTERING (R)-2-[3-[4-AMINO-3-(2-FLUORO-4-PHENOXY-PHENYL)PYRAZOLO[3,4-D]PYRIMIDIN-1-YL]PIPERIDINE-1-CARBONYL]-4-METHYL-4-[4-(OXETAN-3-YL)PIPERAZIN-1-YL]PENT-2-ENENITRILE” (priority 2023, published 2026):

System: moderate-to-severe chronic spontaneous urticaria (CSU)
Test: Phase 2 CSU study: urticaria activity score over 7 days (UAS7)
Assay type: in vivo, human
Details: ITT, 400 mg QPM
Description: The study comprises a 12 week, randomized, double-blind, placebo-controlled, multi-center, dose-ranging efficacy and safety phase, followed by a 40 week open label extension (OLE) phase (see FIG. 1). The study consists of three phases and an optional OLE phase. […] Clinically, CSU is characterized by the spontaneous and recurrent appearance of pruritic hives. The proposed primary endpoints were the UAS7 at Week 12 in EU and EU reference countries and the ISS7 in the US. Regardless of where a participant was from, all assessments were the same. The UAS7 score is a composite score containing both the HSS7 and the ISS7. This allowed a global assessment of the two key components of urticaria: hives and itch. […] The UAS is a validated PRO measure. […] The daily UAS scores range from 0 to 6 point/day. […] Patients were to complete the UAS using the e-diary. […] The following secondary endpoints were to be analyzed using the same approach as for the primary endpoint: • Change from baseline in UAS7 at Week 4 • Change from baseline in UAS7 at Week 12 (for US and US reference countries) • Change from baseline in ISS7 at Week 12 (except US and US reference countries) • Change from baseline in HSS7 at Week 12 The following responder secondary endpoints were to be analyzed using the Cochran-Mantel-Haenszel test adjusted by region: • Proportion of participants with UAS7<6 at Week 12 • Proportion of participants with UAS7=0 at Week 12 Participants who received selected prohibited medications and/or rescue medications were to be considered as non-responders for time points after the medication usage. For other participants, all available data including those collected during the off-treatment period were to be used to determine the responder/non-responder status. Missing data were to be considered as non-responders.

Compound: CC(C)(C=C(C#N)C(=O)N1CCC[C@@H](n2nc(-c3ccc(Oc4ccccc4)cc3F)c3c(N)ncnc32)C1)N1CCN(C2COC2)CC1 [rilzabrutinib, (R)-2-[3-[4-amino-3-(2-fluoro-4-phenoxy-phenyl)pyrazolo[3,4-d]pyrimidin-1-yl]piperidine-1-carbonyl]-4-methyl-4-[4-(oxetan-3-yl)piperazin-1-yl]pent-2-enenitrile]
- Non-responder n (%), UAS7 = 0 (Week 6): 37 (97.4) n (%)
- Non-responder n (%), UAS7 ≤6 (Week 6): 35 (92.1) n (%)
- OR for rilzabrutinib vs. placebo, UAS7 = 0 (Week 6): 1.000
- OR for rilzabrutinib vs. placebo, UAS7 ≤6 (Week 6): 0.540
- RRD (%) for rilzabrutinib vs. placebo, UAS7 = 0 (Week 6): 0.0 %
- RRD (%) for rilzabrutinib vs. placebo, UAS7 ≤6 (Week 6): −6.3%
- Responder n (%), UAS7 = 0 (Week 6): 1 (2.6) n (%)
- Responder n (%), UAS7 ≤6 (Week 6): 3 (7.9) n (%)
- Imputed non-responder n (%), UAS7 = 0 (Week 7): 6 (15.8) n (%)
- Imputed non-responder n (%), UAS7 ≤6 (Week 7): 6 (15.8) n (%)
- Non-responder n (%), UAS7 = 0 (Week 7): 37 (97.4) n (%)
- Non-responder n (%), UAS7 ≤6 (Week 7): 37 (97.4) n (%)
- OR for rilzabrutinib vs. placebo, UAS7 = 0 (Week 7): 1.167
- OR for rilzabrutinib vs. placebo, UAS7 ≤6 (Week 7): 0.278
- RRD (%) for rilzabrutinib vs. placebo, UAS7 = 0 (Week 7): 0.4 %
- RRD (%) for rilzabrutinib vs. placebo, UAS7 ≤6 (Week 7): −7.3%
- Responder n (%), UAS7 = 0 (Week 7): 1 (2.6) n (%)
- Responder n (%), UAS7 ≤6 (Week 7): 1 (2.6) n (%)
- Imputed non-responder n (%), UAS7 = 0 (Week 8): 7 (18.4) n (%)
- Imputed non-responder n (%), UAS7 ≤6 (Week 8): 7 (18.4) n (%)
- Non-responder n (%), UAS7 = 0 (Week 8): 37 (97.4) n (%)
- Non-responder n (%), UAS7 ≤6 (Week 8): 35 (92.1) n (%)
- OR for rilzabrutinib vs. placebo, UAS7 = 0 (Week 8): 0.527
- OR for rilzabrutinib vs. placebo, UAS7 ≤6 (Week 8): 0.502
- RRD (%) for rilzabrutinib vs. placebo, UAS7 = 0 (Week 8): −2.2 %
- RRD (%) for rilzabrutinib vs. placebo, UAS7 ≤6 (Week 8): −7.0%
- Responder n (%), UAS7 = 0 (Week 8): 1 (2.6) n (%)
- Responder n (%), UAS7 ≤6 (Week 8): 3 (7.9) n (%)
- Imputed non-responder n (%), UAS7 = 0 (Week 9): 6 (15.8) n (%)
- Imputed non-responder n (%), UAS7 ≤6 (Week 9): 6 (15.8) n (%)
- Non-responder n (%), UAS7 = 0 (Week 9): 37 (97.4) n (%)
- Non-responder n (%), UAS7 ≤6 (Week 9): 35 (92.1) n (%)
- OR for rilzabrutinib vs. placebo, UAS7 = 0 (Week 9): 0.330
- OR for rilzabrutinib vs. placebo, UAS7 ≤6 (Week 9): 0.773
- RRD (%) for rilzabrutinib vs. placebo, UAS7 = 0 (Week 9): −4.9 %
- RRD (%) for rilzabrutinib vs. placebo, UAS7 ≤6 (Week 9): −2.2 %
- Responder n (%), UAS7 = 0 (Week 9): 1 (2.6) n (%)
- Responder n (%), UAS7 ≤6 (Week 9): 3 (7.9) n (%)
- Imputed non-responder n (%), UAS7 = 0 (Week 10): 6 (15.8) n (%)
- Imputed non-responder n (%), UAS7 ≤6 (Week 10): 6 (15.8) n (%)
- Non-responder n (%), UAS7 = 0 (Week 10): 37 (97.4) n (%)
- Non-responder n (%), UAS7 ≤6 (Week 10): 36 (94.7) n (%)
- OR for rilzabrutinib vs. placebo, UAS7 = 0 (Week 10): 0.235
- OR for rilzabrutinib vs. placebo, UAS7 ≤6 (Week 10): 0.279
- RRD (%) for rilzabrutinib vs. placebo, UAS7 = 0 (Week 10): −7.9 %
- RRD (%) for rilzabrutinib vs. placebo, UAS7 ≤6 (Week 10): −11.9%
- Responder n (%), UAS7 = 0 (Week 10): 1 (2.6) n (%)
- Responder n (%), UAS7 ≤6 (Week 10): 2 (5.3) n (%)
- Imputed non-responder n (%), UAS7 = 0 (Week 11): 7 (18.4) n (%)
- Imputed non-responder n (%), UAS7 ≤6 (Week 11): 7 (18.4) n (%)
- Non-responder n (%), UAS7 = 0 (Week 11): 36 (94.7) n (%)
- Non-responder n (%), UAS7 ≤6 (Week 11): 35 (92.1) n (%)
- OR for rilzabrutinib vs. placebo, UAS7 = 0 (Week 11): 1.065
- OR for rilzabrutinib vs. placebo, UAS7 ≤6 (Week 11): 0.418
- RRD (%) for rilzabrutinib vs. placebo, UAS7 = 0 (Week 11): 0.3 %
- RRD (%) for rilzabrutinib vs. placebo, UAS7 ≤6 (Week 11): −9.4%
- Responder n (%), UAS7 = 0 (Week 11): 2 (5.3) n (%)
- Responder n (%), UAS7 ≤6 (Week 11): 3 (7.9) n (%)
- Imputed non-responder n (%), UAS7 = 0 (Week 12): 10 (26.3) n (%)
- Imputed non-responder n (%), UAS7 ≤6 (Week 12): 10 (26.3) n (%)
- Non-responder n (%), UAS7 = 0 (Week 12): 37 (97.4) n (%)
- Non-responder n (%), UAS7 ≤6 (Week 12): 36 (94.7) n (%)
- OR for rilzabrutinib vs. placebo, UAS7 = 0 (Week 12): 0.194
- OR for rilzabrutinib vs. placebo, UAS7 ≤6 (Week 12): 0.378
- RRD (%) for rilzabrutinib vs. placebo, UAS7 = 0 (Week 12): −10.0 %
- RRD (%) for rilzabrutinib vs. placebo, UAS7 ≤6 (Week 12): −7.6%
- Responder n (%), UAS7 = 0 (Week 12): 1 (2.6) n (%)
